# Laboratory results reported in patent US20100029657A1, “Bridged, Bicyclic Heterocyclic or Spiro Bicyclic Heterocyclic Derivatives of Pyrazolo[1, 5-A]Pyrimidines, Methods for Preparation and Uses Thereof” (Wyeth, priority 2008, published 2010).
# Structures can show the parent of a compound that is named as a salt.
# Biological target: T1, Flag/GST-tagged recombinant human B-Raf (Homo sapiens, UniProt P15056)
# T1 construct: Flag; GST; made in house; host or cells: Sf9 insect cells (B-Raf); E. coli (MEK1-GST)
# T1 sequence (P15056 whole entry): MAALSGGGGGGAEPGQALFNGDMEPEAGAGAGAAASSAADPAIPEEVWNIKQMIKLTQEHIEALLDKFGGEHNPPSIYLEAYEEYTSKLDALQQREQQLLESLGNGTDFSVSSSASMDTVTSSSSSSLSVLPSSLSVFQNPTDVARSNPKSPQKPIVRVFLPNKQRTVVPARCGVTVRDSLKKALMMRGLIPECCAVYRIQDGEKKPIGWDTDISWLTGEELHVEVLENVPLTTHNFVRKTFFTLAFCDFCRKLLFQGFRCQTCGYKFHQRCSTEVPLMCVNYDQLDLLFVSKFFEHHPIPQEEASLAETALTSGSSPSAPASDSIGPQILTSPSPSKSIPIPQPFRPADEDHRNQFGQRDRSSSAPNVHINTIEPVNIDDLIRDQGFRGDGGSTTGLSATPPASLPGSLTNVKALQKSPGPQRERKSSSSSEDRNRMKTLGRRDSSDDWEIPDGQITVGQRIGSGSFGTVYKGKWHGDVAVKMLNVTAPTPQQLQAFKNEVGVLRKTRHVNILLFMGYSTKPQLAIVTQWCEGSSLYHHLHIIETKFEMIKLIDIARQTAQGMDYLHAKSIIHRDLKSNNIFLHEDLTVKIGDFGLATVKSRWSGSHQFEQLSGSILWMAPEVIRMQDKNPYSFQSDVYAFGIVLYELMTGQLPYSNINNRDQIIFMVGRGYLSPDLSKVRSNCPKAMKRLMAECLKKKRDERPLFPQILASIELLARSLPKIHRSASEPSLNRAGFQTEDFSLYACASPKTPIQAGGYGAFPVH
# Experiment: B-Raf kinase assay (phosphorylation of GST-MEK1, phospho-MEK1 antibody/Europium detection)
# Assay type: biochemical
# Conditions: B-Raf IC50 Data for compounds of Formula A; read-out: Mean IC50
# Outline: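 Active B-Raf (0.2 nM) phosphorylates GST-MEK1 in 20 mM MOPS pH 7.2 buffer with DTT, vanadate and 0.01% Triton X-100. The Mg/ATP cocktail (200 μM ATP, 40 mM MgCl2) is added, then incubation runs 45 min at RT. Product is captured on anti-GST plates and detected by anti-phospho-MEK1 plus Europium-anti-rabbit fluorescence, giving % inhibition per concentration.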
row,Molecule,IC50 [µM]
1,"CC(C)(C)OC(=O)N1C[C@@H]2C[C@H]1CN2c1cc(F)c(-c2ccnc3c(-c4cccc5[nH]ncc45)c(-c4ccncc4)nn23)c(F)c1 [Example 99, tert-butyl(1S,4S)-5-{3,5-difluoro-4-[3-(1H-indazol-4-yl)-2-pyridin-4-ylpyrazolo[1,5-a]pyrimidin-7-yl]phenyl}-2,5-diazabicyclo[2.2.1]heptane-2-carboxylate]",0.0016
2,"Cc1cc(N2C[C@@H]3C[C@H]2CN3)ccc1-c1ccnc2c(-c3ccc(F)c4[nH]ncc34)c(-c3ccncc3)nn12 [Example 135, 7-{4-[(1S,4S)-2,5-diazabicyclo[2.2.1]hept-2-yl]-2-methylphenyl}-3-(7-fluoro-1H-indazol-4-yl)-2-pyridin-4-ylpyrazolo[1,5-a]pyrimidine]",< 0.0003
3,"Clc1cc(N2C[C@@H]3C[C@H]2CN3)ccc1-c1ccnc2c(-c3cccc4[nH]ncc34)c(-c3ccncc3)nn12 [Example 61, 7-(4-((1S,4S)-2,5-Diazabicyclo[2.2.1]heptan-2-yl)-2-chlorophenyl)-3-(1H-indazol-4-yl)-2-(pyridin-4-yl)pyrazolo[1,5-a]pyrimidine]",< 0.0003
4,"CC(C)CN1C[C@@H]2C[C@H]1CN2c1cc(F)c(-c2ccnc3c(-c4cccc5[nH]ncc45)c(-c4ccncc4)nn23)c(F)c1 [Example 168, 7-{2,6-difluoro-4-[(1S,4S)-5-isobutyl-2,5-diazabicyclo[2.2.1]hept-2-yl]phenyl}-3-(1H-indazol-4-yl)-2-pyridin-4-ylpyrazolo[1,5-a]pyrimidine]",< 0.0003
5,"Fc1ccc(-c2c(-c3ccncc3)nn3c2nccc3[C@H]2CC[C@H](N3C[C@@H]4C[C@H]3CN4)CC2)c2cn[nH]c12 [Example 183, 7-{trans-4-[(1S,4S)-2,5-diazabicyclo[2.2.1]hept-2-yl]cyclohexyl}-3-(7-fluoro-1H-indazol-4-yl)-2-pyridin-4-ylpyrazolo[1,5-a]pyrimidine]",< 0.0003
6,"Cc1cc(N2C[C@@H]3C[C@H]2CN3C)ccc1-c1ccnc2c(-c3ccc(F)c4[nH]ncc34)c(-c3ccncc3)nn12 [Example 136, 3-(7-fluoro-1H-indazol-4-yl)-7-{2-methyl-4-[(1S,4S)-5-methyl-2,5-diazabicyclo[2.2.1]hept-2-yl]phenyl}-2-pyridin-4-ylpyrazolo[1,5-a]pyrimidine]",< 0.0003
7,"CN1C[C@@H]2C[C@H]1CN2c1cc(F)c(-c2ccnc3c(-c4ccc(F)c5[nH]ncc45)c(-c4ccncc4)nn23)c(F)c1 [Example 110, 7-{2,6-Difluoro-4-[(1S,4S)-5-methyl-2,5-diazabicyclo[2.2.1]hept-2-yl]phenyl}-3-(7-fluoro-1H-indazol-4-yl)-2-pyridin-4-yl pyrazolo[1,5-a]pyrimidine]",< 0.0001
8,"CCOC(=O)N1C2CCC1CC(c1ccnc3c(-c4cccc(OC)c4)c(-c4ccncc4)nn13)C2 (stereo not drawn) [Example 7, Ethyl 3-(3-(3-methoxyphenyl)-2-(pyridin-4-yl)pyrazolo[1,5-a]pyrimidin-7-yl)-8-azabicyclo[3.2.1]octane-8-carboxylate]",0.087
9,"CCOC(=O)N1C2CCC1CC(c1ccnc3c(-c4ccc(C)c5[nH]ncc45)c(-c4ccncc4)nn13)C2 (stereo not drawn) [Example 78, Ethyl 3-[3-(7-Methyl-1H-indazol-4-yl)-2-pyridin-4-ylpyrazolo[1,5-a]pyrimidin-7-yl]-8-azabicyclo[3.2.1]octane-8-carboxylate, trifuoroacetate salt]",0.0007
10,"Fc1cc(N2C[C@@H]3CC[C@H]2CN3)ccc1-c1ccnc2c(-c3cccc4[nH]ncc34)c(-c3ccncc3)nn12 [Example 172, 7-{4-[(1S,4S)-2,5-diazabicyclo[2.2.2]oct-2-yl]-2-fluorophenyl}-3-(1H-indazol-4-yl)-2-pyridin-4-ylpyrazolo[1,5-a]pyrimidine]",0.0003
11,"CC(=O)N1C2CCC1CC(c1ccnc3c(-c4ccc(Cl)c(O)c4)c(-c4ccncc4)nn13)C2 (stereo not drawn) [Example 13, 5-[7-(8-Acetyl-8-azabicyclo[3.2.1]oct-3-yl)-2-pyridin-4-ylpyrazolo[1,5-a]pyrimidin-3-yl]-2-chlorophenol]",0.0003
12,"CN1C[C@@H]2C[C@H]1CN2c1ccc(-c2ccnc3c(-c4cccc5[nH]ncc45)c(-c4ccncc4)nn23)c(Cl)c1 [Example 98, 7-[2-Chloro-4-((1S,4S)-5-methyl-2,5-diaza-bicyclo[2.2.1]hept-2-yl)-phenyl]-3-(1H-indazol-4-yl)-2-pyridin-4-yl-pyrazolo[1,5-a]pyrimidine]",< 0.0003
13,"Cc1cc(N2C[C@@H]3C[C@H]2CN3C)ccc1-c1ccnc2c(-c3cccc4[nH]ncc34)c(-c3ccncc3)nn12 [Example 45, 3-(1H-Indazol-4-yl)-7-(2-methyl-4-((1S,4S)-5-methyl-2,5-diazabicyclo[2.2.1]heptan-2-yl)phenyl)-2-(pyridin-4-yl)pyrazolo[1,5-a]pyrimidine]",< 0.0003
14,"CCN1C2CCC1CC(c1ccnc3c(-c4ccc(Cl)c5[nH]ncc45)c(-c4ccncc4)nn13)C2 (stereo not drawn) [Example 79, 3-(7-Chloro-1H-indazol-4-yl)-7-(8-ethyl-8-azabicyclo[3.2.1]oct-3-yl)-2-pyridin-4-ylpyrazolo[1,5-a]pyrimidin, trifluoroacetate salt]",0.004
15,"CCOC(=O)N1C2CCC1CC(c1ccnc3c(-c4cccc(NS(C)(=O)=O)c4)c(-c4ccncc4)nn13)C2 (stereo not drawn) [Example 66, Ethyl 3-(3-(3-(methylsulfonamido)phenyl)-2-(pyridin-4-yl)pyrazolo[1,5-a]pyrimidin-7-yl)-8-azabicyclo[3.2.1]octane-8-carboxylate]",0.329
16,"Cc1cc(N2C[C@@H]3C[C@H]2CN3C)ccc1-c1ccnc2c(-c3ccc(F)c(O)c3)c(-c3ccncc3)nn12 [Example 56, 2-Fluoro-5-(7-(2-methyl-4-((1S,4S)-5-methyl-2,5-diazabicyclo[2.2.1]heptan-2-yl)phenyl)-2-(pyridin-4-yl)pyrazolo[1,5-a]pyrimidin-3-yl)phenol]",< 0.0003
17,"CN1C[C@@H]2C[C@H]1CN2c1ccc(-c2ccnc3c(-c4cccc5[nH]ncc45)c(-c4ccncc4)nn23)c2ccccc12 [Example 160, 3-(1H-indazol-4-yl)-7-{4-[(1S,4S)-5-methyl-2,5-diazabicyclo[2.2.1]hept-2-yl]-1-naphthyl}-2-pyridin-4-ylpyrazolo[1,5-a]pyrimidine]",0.0253
18,"Ethyl 3-[3-(2-oxo-2,3-dihydro-1H-pyrrolo[2,3-b]pyridin-4-yl)-2-pyridin-4-ylpyrazolo[1,5-a]pyrimidin-7-yl-8-azabicyclo[3.2.1]octane-8-carboxylate [Example 86]",0.27
19,"CC(C)(C)OC(=O)N1CCC[C@H]1C(=O)N1C2CCC1CC(c1ccnc3c(-c4cccc5[nH]ncc45)c(-c4ccncc4)nn13)C2 (stereo partly drawn) [Example 128, tert-butyl (2S)-2-({3-[3-(1H-indazol-4-yl)-2-pyridin-4-ylpyrazolo[1,5-a]pyrimidin-7-yl]-8-azabicyclo[3.2.1]oct-8-yl}carbonyl)pyrrolidine-1-carboxylate]",0.0394
20,"CCN1C2CCC1CC(c1ccnc3c(-c4ccc(C(F)(F)F)c5[nH]ncc45)c(-c4ccncc4)nn13)C2 (stereo not drawn) [Example 80, 7-(8-Ethyl-8-azabicyclo[3.2.1]oct-3-yl)-2-pyridin-4-yl-3-[7-(trifluoromethyl)-1H-indazol-4-yl]pyrazolo[1,5-a]pyrimidine, trifluoroacetate salt]",0.048
21,"CCOC(=O)N1[C@@H]2CC[C@H]1C[C@@H](c1c(C)cnc3c(-c4cccc5[nH]ncc45)c(-c4ccncc4)nn13)C2 [Example 199, ethyl (3-endo)-3-[3-(1H-indazol-4-yl)-6-methyl-2-pyridin-4-ylpyrazolo[1,5-a]pyrimidin-7-yl]-8-azabicyclo[3.2.1]octane-8-carboxylate]",0.0055
22,"CN1C[C@@H]2C[C@H]1CN2c1ccc(-c2ccnc3c(-c4cccc5[nH]ncc45)c(-c4ccncc4)nn23)cn1 [Example 34, 3-(1H-Indazol-4-yl)-7-(6-((1S,4S)-5-methyl-2,5-diazabicyclo[2.2.1]heptan-2-yl)pyridin-3-yl)-2-(pyridin-4-yl)pyrazolo[1,5-a]pyrimidine]",0.0023
23,"Clc1cc(N2C[C@@H]3C[C@H]2CN3)ccc1-c1ccnc2c(-c3cccc4[nH]ncc34)c(-c3ccncc3)nn12 [Example 97, 7-[2-Chloro-4-((1S,4S)-2,5-diaza-bicyclo[2.2.1]hept-2-yl)-phenyl]-3-(1H-indazol-4-yl)-2-pyridin-4-yl-pyrazolo[1,5-a]pyrimidine bis-hydrochloride salt]",< 0.0003
24,"CN1C[C@@H]2C[C@H]1CN2c1ccc(-c2ccnc3c(-c4ccc(F)c5[nH]ncc45)c(-c4ccncc4)nn23)cc1 [Example 104, 3-(7-fluoro-1H-indazol-4-yl)-7-{4-[(1S,4S)-5-methyl-2,5-diazabicyclo[2.2.1]hept-2-yl]phenyl}-2-pyridin-4-ylpyrazolo[1,5-a]pyrimidine hydrochloride]",0.00024
25,"Clc1ccc(-c2c(-c3ccncc3)nn3ccc(-c4ccc(N5C[C@@H]6C[C@H]5CN6)cc4)nc23)c2cn[nH]c12 [Example 139, 3-(7-chloro-1H-indazol-4-yl)-5-{4-[(1S,4S)-2,5-diazabicyclo[2.2.1]hept-2-yl]phenyl}-2-pyridin-4-ylpyrazolo[1,5-a]pyrimidine]",0.0012

# Same assay, conditions: Mean IC50 (uM), B-Raf IC50 Data for compounds of Formula A
row,Molecule,IC50 [µM]
1,"CCOC(=O)N1C2CCC1CC(c1ccnc3c(-c4ccc(C(F)(F)F)c5[nH]ncc45)c(-c4ccncc4)nn13)C2 (stereo not drawn) [Example 76, Ethyl 3-{2-pyridin-4-yl-3-[7-(trifluoromethyl)-1H-indazol-4-yl]pyrazolo[1,5-a]pyrimidin-7-yl}-8-azabicyclo[3.2.1]octane-8-carboxylate]",0.004
2,"CCOC(=O)N1C2CCC1CC(c1ccnc3c(-c4ccc(Cl)c5[nH]ncc45)c(-c4ccncc4)nn13)C2 (stereo not drawn) [Example 75, Ethyl 3-[3-(7-chloro-1H-indazol-4-yl)-2-pyridin-4-ylpyrazolo[1,5-a]pyrimidin-7-yl]-8-azabicyclo[3.2.1]octane-8-carboxylate]",0.0003
